Results: patent US20040054014A1, “Method and pharmaceutical compositions forthe treatment of cancer” (priority 2002, published 2004)

Experiments:
[1] = Animals' body weight (treatment toxicity) in P388/WT and P388/ADR models; format: in vivo, mice; settings: fluoxetine 0.04 mg/kg daily oral only; DOX 3 mg/kg days 1, 5, 9; both tumor models
Protocol: (§1) P388/WT (non-resistant) or P388/ADR (MDR-acquired) murine leukemia cells were propagated in the peritoneum of BDF1 female mice by weekly transfer of 0.5 ml of peritoneal fluid containing 5×10^5 cells, to generate an intraperitoneal ascites model.
(§2) In both models, Doxorubicin (DOX) was tested. Doses of 3 mg/kg body were injected into the lateral tail vain, 1, 5 and 9 days after tumor inoculation.
(§3) Comparative experiments were run in parallel with the sensitive, non-resistant P388/WT model and the corresponding, MDR-acquired P388/ADR model. […] A group of untreated healthy animals was served as a control group. […] The fluoxetine was given in the drinking water, from tumor inoculation and on. Doxorubicin was injected into the lateral tail vain 1, 5 and 9 days post tumor inoculation. The effects of the various treatments on tumor response were monitored through animals' survival and animals' body weight. The latter was monitored in order to assess the treatment toxicity.

P388/ADR cell line = assay: MTT cell viability, MDR-acquired cell line; format: cell-based, murine; settings: for increase in cell death, combined treatment with DOX: DOX (1, 5, 10 μg/ml) + 5 μM chemosensitizer
Protocol: (§4) After 4 hours incubation, the treatment media was replaced with CS- and CT-free media and the experiment was terminated 24 hours later.

P388/ADR cells [2] = assay: Intracellular accumulation of Doxorubicin, confocal microscopy (system II); format: cell-based, murine
Protocol: (§5) At the end of the incubation time, the cells were washed 6 times with PBS, fixed with a mounting medium (Mounting medium with anti-fading agents, Biomeda corp., CA, USA) and were analysed by Confocal microscopy (Zeiss LSM 510). Excitation was at 488 nm and emission was measured using a band pass filter of 505-550 nm.

[3] = tested on: PANC-1, C6, MCF-7, U20S and HT1080 cell lines; settings: 48 hours; for reduction in cell survival, drug alone: non-resistant cell lines, 0.1 μg/ml DOX, 0.3 μg/ml VIN
C-26 cells [4] = assay: Solid tumor model (inherent MDR); format: in vivo, mice; settings: for solid tumor volume with time, single agent: fluoxetine 0.04 mg/kg daily oral alone, MMC or DOX 5 mg/kg i.v. alone
Protocol: In the solid tumor model, MDR-inherent C-26 cells were injected into the animal's right-hind footpad.
In the solid tumor model, Mitomycin C (MMC) and Doxorubicin (DOX) were tested separately, each at a dose of 5 mg/kg body.

P388/WT cell line = assay: MTT cell viability, non-resistant cell line; format: cell-based, murine
Protocol: as §4

C6 cells = settings: cells loaded with 0.1 μg/ml DOX alone
B16F10 cells = assay: Lung metastasis model (inherent MDR); format: in vivo, mice; settings: for lung metastatic burden (lung weight, number of metastasis), single agent: Doxorubicin 10 mg/kg alone, chemosensitizer 0.04 mg/kg daily oral alone
C-26 cells [5] = assay: Intracellular accumulation of Rhodamine-123, confocal microscopy (system II); format: cell-based, murine; settings: 5 μM Rhodamine-123 + […] μM chemosensitizer, monolayers
Protocol: as §5

P388/ADR cells [6] = assay: Intracellular accumulation of Rhodamine-123, flow cytometry (system I); format: cell-based, murine; settings: 5 μM Rhodamine-123 + […] μM chemosensitizer, suspended cells
Text: The cells were thereafter analyzed for intracellular fluorescence, using a flow cytometer (Becton-Dickinson, USA). Excitation and emission were at 485 nm and 547 nm, respectively.

[7] = tested on: B16F10 and C-26 cell lines; settings: Mitomycin C 50 μg/ml or Doxorubicin 1.0 μg/ml with 15 μM fluoxetine
P388/WT = assay: Intraperitoneal ascites model, non-resistant tumor, survival; format: in vivo, mice; settings: DOX 3 mg/kg + fluoxetine 0.04 mg/kg daily oral
Protocol: as §1, §2, §3

P388/ADR = assay: Intraperitoneal ascites model, MDR-acquired tumor, survival; format: in vivo, mice; settings: DOX 3 mg/kg + fluoxetine 0.04 mg/kg daily oral
[8] = cited from earlier work
C6 and PANC-1 cells = tested on: C6 and PANC-1 cells; design: dose or concentration left out as unconfirmed; settings: […] μM fluoxetine alone, 24 hours
[9] = fluoxetine alone 1-20 μM, 4 hours then 20 hours CS-free media

For COc1cccc2c1C(=O)c1c(O)c3c(c(O)c1C2=O)C[C@@](O)(C(=O)CO)C[C@@H]3O[C@H]1C[C@H](N)[C@H](O)[C@H](C)O1 [Doxorubicin], the “change in body weight, single agent” value [1] was “minor weight decrease”, the cell death (P388/ADR cell line; 5 μg/ml DOX alone) was under 20% and the cell death (P388/ADR cell line; doubled drug concentration (10 μg/ml DOX) alone) was “about 30%”. For the same compound, the “intracellular accumulation of doxorubicin alone (confocal images)” value (P388/ADR cells [2]; 5 μg/ml Doxorubicin alone) was “quite poor”, the “reduction in cell survival, drug alone” value [3] was 50% and the “solid tumor volume with time, single agent” value (shortened to “solid tumor volume with time”) (C-26 cells [4]) was “increases fast and exponentially”. For the same compound, the cell death (P388/WT cell line; 0.5 μg/ml DOX alone) was “about 50%”, the cell death (P388/WT cell line; 5 μg/ml DOX alone) was 100% and the “time for complete depletion of intracellular DOX” value (C6 cells) was at most 2 h. For the same compound, the “lung metastatic burden (lung weight, number of metastasis), single agent” value (B16F10 cells) was “only a mild reduction in the metastatic burden”.
In the case of CO[C@@]12[C@H](COC(N)=O)C3=C(C(=O)C(C)=C(N)C3=O)N1C[C@@H]1N[C@@H]12 [Mitomycin C], the “solid tumor volume with time” value (C-26 cells [4]) was “increases fast and exponentially”.
For COc1ccc(CCN(C)CCCC(C#N)(c2ccc(OC)c(OC)c2)C(C)C)cc1OC (centres unmarked) [Verapamil], the “increase in cell death, combined treatment with DOX” value (P388/ADR cell line) was “modest increase in cell death”, the “intracellular accumulation of Rhodamine-123 (confocal images)” value (C-26 cells [5]) was “an increase in the intracellular level of Rhodamine-123” and the “increase of intracellular Rhodamine-123 fluorescence vs chemosensitizer-free control” value (P388/ADR cells [6]) was “about 60%”.
For CC[C@]1(O)C[C@@H]2CN(CCc3c([nH]c4ccccc34)[C@@](C(=O)OC)(c3cc4c(cc3OC)N(C)[C@H]3[C@@](O)(C(=O)OC)[C@H](OC(C)=O)[C@]5(CC)C=CCN6CC[C@]43[C@@H]65)C2)C1 [Vinblastine], the “reduction in cell survival, drug alone” value [3] was 50%.
With CNCCC(Oc1ccc(C(F)(F)F)cc1)c1ccccc1 (centres unmarked) [fluoxetine, N-methyl 3-(p-trifluoromethylphenoxy)-3-phenylpropylamine] the “change in body weight, single agent” value [1] was “no weight loss”, the “increase in cell death, combined treatment with DOX” value (P388/ADR cell line) was “significant increase” and the “increase in cell death as compared with Verapamil and CsA” value (P388/ADR cell line; DOX + 5 μM fluoxetine vs DOX + 5 μM Verapamil or CsA) was 2-3 fold. For the same compound, the “effect on cells viability” value (P388/ADR cell line; [9]) was “no effect on cells viability”, the “intracellular accumulation of Rhodamine-123 (confocal images)” value (C-26 cells [5]) was “substantially higher increase in the intracellular accumulation of Rhodamine-123” and the “intracellular level of DOX (confocal images)” value (P388/ADR cells [2]; 5 μg/ml Doxorubicin + 5 μM fluoxetine, monolayers) was “substantial increase in the intracellular level of DOX”. For the same compound, the “toxicity to the cells” value ([3]; fluoxetine alone, 0-15 μM) was “not toxic to the cells”, the “survival prolonged vs saline, CS alone and CT alone” value (C-26 cells [4]; DOX+CS (DOX 5 mg/kg, fluoxetine 0.04 mg/kg daily oral)) was 3 fold and the “survival prolonged vs saline, CS alone and CT alone” value (C-26 cells [4]; MMC+CS (MMC 5 mg/kg, fluoxetine 0.04 mg/kg daily oral)) was 2 fold. For the same compound, the “solid tumor growth, combination therapy” value (C-26 cells [4]; fluoxetine 0.04 mg/kg daily oral + MMC or DOX 5 mg/kg) was “tumor growth is significantly slower”, the “solid tumor volume with time” value (C-26 cells [4]) was “increases fast and exponentially” and the “cell death, combination of the drug and fluoxetine” value [7] was 80-90%. For the same compound, the “animals' survival, combined DOX and fluoxetine” value (P388/WT) was “had no effect on animal's survival”, the “increase of intracellular Rhodamine-123 fluorescence vs chemosensitizer-free control” value (P388/ADR cells [6]) was “about 200%” and the “elongated life span, combination of fluoxetine and DOX” value (P388/ADR) was “more than 2 fold”. The “effect of combination treatment on level of cells death” value (P388/WT cell line; DOX with 5 μM fluoxetine vs DOX alone) was “had no effect on the level of cells death”, the “effect on cells viability” value (P388/WT cell line; [9]) was “no effect on cells viability” and the “safe, substantially side effect-free daily dose range” value [8] was 10-15 mg/M^2. For the same compound, the “effect on cell survival” value (C6 and PANC-1 cells) was “does not affect cell survival at all”, the “survival, CS alone” value (B16F10 cells; 75-days experiment) was “died rather early” and the “survival, combination treatment” value (B16F10 cells; CS + Doxorubicin, 75-days experiment) was “long survivors”. The “lung metastatic burden (lung weight, number of metastasis), single agent” value (B16F10 cells) was “highest metastatic burden” and the “lung metastatic burden, combination treatment” value (B16F10 cells; chemosensitizer + Doxorubicin 10 mg/kg) was “substantial reduction”.
